Common to all, as to format: in vivo
Experiment [1] has as its system olfactory bulbectomy rat. The experiment is described as follows: Elevated plus-maze in olfactory bulbectomy rat (antianxiety effect). The following applies: for antianxiety effect: elevated plus-maze. The source says: (§1) Antidepressant Effect and Antianxiety Effect for Olfactory Bulbectomy Rat
(§2) Male Wistar rat was anesthetized by injection of pentobarbital sodium, and fixed the head on a brain positioner. Either side of the bulbus olfactorius region of the head was drilled a hole with dental drill after the scalp incision. The either side of the bulbus olfactorius was aspirated and removed with an aspirator and then, the head was stitched up the scalp. The rat was defined as an olfactory bulbectomy animal. Alternatively, a sham surgery animal was anesthetized, fixed the brain, incised the scalp as well as the olfactory bulbectomy animal. The either side of the bulbus olfactorius region of the head was drilled a hole, and the either side of the bulbus olfactorius was not aspirated and removed and then, the head was stitched up the scalp. The olfactory bulbectomy animals were bred with isolated alone. In contrast, the sham surgery animals were not bred with isolated alone.
Furthermore, each the olfactory bulbectomy animals and the sham surgery animals administered the compound (I) of the present invention, desipramine hydrochloride or control were located the center of platform toward the open arms on the elevated plus-maze for 10 minutes for the first dosage one hour later of the eighth day, and it was measured within a 5 minutes period. Each the time (second) in the open arms and the close arms were measured with video-imaging behavioral analysis equipment.

Experiment [2] has as its system corticosterone elevation evoked by administration of sulprostone. Put plainly: Inhibitory activity for corticosterone elevation evoked by administration of sulprostone. The following applies: Male CD (SD) IGS rat; 10 mg/kg orally 1 hour before sulprostone 0.3 mg/kg subcutaneously; blood 1 hour after. Here is the method:
Inhibitory Activity for Corticosterone Elevation Evoked by Administration of Sulprostone
Male CD (SD) IGS rat were orally administrated EP3 antagonist [compound (I), compound (II) and compound (III) (respectively, 10 mg/5 mL/kg (0.5% methylcellulose suspension))], the control group were orally administrated 0.5% methylcellulose suspension (5 mL/kg). After being administered for an hour, all groups were administered sulprostone subcutaneously (0.3 mg/4 mL/kg). In contrast, non-evoked group were orally administrated 0.5% methylcellulose suspension (5 mL/kg), and after being administered for an hour, administered physiological saline subcutaneously (4 mL/kg). After 1 hour from subcutaneous administration, rats of all groups were collected blood. The withdrawn blood was added EDTA and aprotinin, centrifuged (12,000 rpm, 3 minutes), and measured the corticosterone concentration in the supernatant by using the method of EIA (Bachem Inc.) or ELISA (Endocrine Technologies Inc.).

For experiment [3], the system named is olfactory bulbectomy rat. The experiment is described as follows: Score of emotional responses in olfactory bulbectomy rat (antidepressant effect). The following applies: for score of emotional responses: seventh day, Male Wistar olfactory bulbectomy rat, 10 mg/kg orally twice a day for 7 days, control group 20.1±0.7, sham 3.7±3.4.
Source text: as §1, §2
The olfactory bulbectomy animals were orally administered each the compound (I) of the present invention (10 mg/kg), the compound as positive control (desipramine hydrochloride (10 mg/kg); Wako Pure Chemical Industries, Ltd.), and control (0.5% methylcellulose suspension (5 mL/kg)) twice a day for 7 days. At that time, reactivity of emotional responses for 10 minutes for the first dosage one hour later of the first day and the seventh day was marked in accordance with an evaluation standard based on Gomi's method (Gomitami, other four people, Japanese pharmacologic magazine, 1983, Vol. 82, p 267-292).

Counter-ions that a name gives are not always drawn.

For the compound `Cc1cc(C)cc([C@@H](CC(C)C)NC(=O)c2cc(COc3cc(F)ccc3C)ccc2CCC(=O)O)c1` [compound (I), 3-(2-((((1R)-1-(3,5-dimethylphenyl)-3-methylbutyl)amino)carbonyl)-4-(5-fluoro-2-methylphenoxymethyl)phenyl)propanoic acid], the “time in the open arms on the elevated plus-maze” value in the experiment on olfactory bulbectomy rat [1] (eighth day, 1 hour after first dosage, 5 minutes period, FIG. 3) is on record as “improved significantly”. Also, the antianxiety effect entry in the experiment with olfactory bulbectomy rat [1] is listed as “has antianxiety effect”. Also, in experiment [2], the “corticosterone elevation (corticosterone concentration in blood)” value (from here on “corticosterone elevation”) was “inhibited”. For the same compound, in the experiment on olfactory bulbectomy rat [3] (olfactory bulbectomy rat), the antidepressant effect result is “has antidepressant effect”. Also, the “score of emotional responses (in words)” value with olfactory bulbectomy rat [3] (olfactory bulbectomy rat, 10 mg/kg orally twice a day, FIG. 2) is listed as “decreased significantly”. The “score of emotional responses” value with olfactory bulbectomy rat [3] stood at 6.2±4.6.
As to `Cc1cc(C)cc([C@@H](CC(C)C)NC(=O)c2cc(COc3cc(F)ccc3F)ccc2CCC(=O)O)c1` [compound (II), 3-(2-(((1R)-3-methyl-1-(3,5-dimethylphenyl)butyl)carbamoyl)-4-(2,5-difluorophenoxymethyl)phenyl)propanoic acid], in the experiment on olfactory bulbectomy rat [1], the antianxiety effect entry is listed as “equivalent effect”. Also, in experiment [2], the “corticosterone elevation” value is “inhibited”. In the experiment with olfactory bulbectomy rat [3] (olfactory bulbectomy rat), the antidepressant effect result is given as “equivalent effect”.
Turning to `Cc1cc(C)cc([C@@H](CC(C)C)NC(=O)c2cc(COc3cc(C)ccc3C)ccc2CCC(=O)O)c1` [compound (III), 3-(2-(((1R)-3-methyl-1-(3,5-dimethylphenyl)butyl)carbamoyl)-4-(2,5-dimethylphenoxymethyl)phenyl)propanoic acid], the antianxiety effect result with olfactory bulbectomy rat [1] is “equivalent effect”. For the same compound, the “corticosterone elevation” value in experiment [2] is on record as “inhibited”. In addition, the antidepressant effect result in the experiment with olfactory bulbectomy rat [3] (olfactory bulbectomy rat) is given as “equivalent effect”.
Regarding `CNCCCN1c2ccccc2CCc2ccccc21` [desipramine hydrochloride, reference compound], the “effective daily dosage in olfactory bulbectomy rat” value in the experiment on olfactory bulbectomy rat [3] (olfactory bulbectomy rat, oral) was 20 mg/kg per day. In the experiment with olfactory bulbectomy rat [3], the “score of emotional responses” value is listed as 7.5±3.4.

These data come from patent US20090286862A1, “Therapeutic agent for psychoneurotic disease” (ONO PHARMACEUTICAL CO., LTD., priority 2004, published 2009).
